We go through nine compounds from US9272047B2, “Use of biological surfactant as anti-inflammatory agent and tissue preservative solution” (Shaperon Inc., priority 2007, dated 2016).

One experiment deals with NF-κB. Put plainly: Inhibition of E. coli LPS-stimulated NF-κB activation (CD25 expression) in 3FP CHO cells. Type of experiment: cell-based, Chinese hamster. As to conditions: live 7AAD(−) LPS-stimulated 3FP cells. The procedure:
In order to evaluate the inhibition efficacy for the activation of E. coli LPS-stimulated NF-κB in a CHO cell, % expression of CD 25 in the CHO cell was evaluated as the following method, and FACS analysis after staining with 7-AAD was carried out to evaluate the cytotoxicity. Bile salts were classified into 3 groups based on their solubility in different solvents, as follows:
The CHO cells expressing CD25 under the regulation of a nuclear factor (NF-κB) promoter, shown FIG. 2A, were used for this experiment. Toll-like receptor 2 (TLR2) and CD14 gene-transformed CHO cells (hereinafter referred to as “3FP cells”) were also used.
The next day, the cultured cells were treated with bile acid derivatives and LPS, and were incubated in a CO2 incubator for 15 hr at 37° C.
After stimulating the above incubated cells for 15 hr, the culture solution was centrifuged (1200 rpm, 5 min, 4° C.) to remove the culture supernatant. The precipitate was washed twice with 200 μl of FACS buffer (1×PBS containing 1% BSA and 1 mM EDTA). 20 μl of blocking solution (PBS containing 1:10 of normal mouse serum and 1:3 of anti-human CD14/CD32 (BD, 2.4G2) was added to each well and reacted on an ice for 30 min. A mixture solution of anti-human CD25-PE (1:16) and anti-human CD14-FITC (1:32) was added to the well and then reacted on the ice for 30 min. The reaction mixture was washed twice with 200 μl of FACS buffer, and then 200 μl of 7-AAD (1:20) was added to the reaction mixture. After the reaction mixture was reacted on the ice for 10 min, CD25 expression efficacy and cytotoxicity were analyzed by using a flow cytometer.
In order to analyze living cells, 7-AAD(−) cells were selected and an activation of nuclear transcription factor was confirmed by the increase of CD25 expression.

Experiment [1] has as its system dendritic cells. The experiment in a line: Inhibition of LPS-induced nitric oxide generation, dendritic cells (Griess). Type of experiment: cell-based, mouse. As to conditions: dendritic cells stimulated by LPS, 18 hours. The procedure: (§1) Then, the resulting dendritic cell mixtures were plated, by […] each, in a 96-well plate. Griss reagents were added to each well, and the 96-well plate was covered with foils and kept reacting for 15 min at room temperature. Absorbance at 540 nm was measured using an ELISA reader. Macrophages separated from abdomen were also treated with sodium glycocholate, sodium taurochenodeoxycholate and sodium taurodeoxycholate, respectively, and then stimulated with LPS for 18 hours. Thereafter, the same experiments as the dentritic cells were performed to the macrophages.
Background: Nitrite, measured by Griess reagent, commonly stands in for NO production.

A further experiment deals with macrophages. The experiment in a line: Inhibition of LPS-induced nitric oxide generation, macrophages (Griess). The format is cell-based, mouse. As to conditions: macrophages stimulated by LPS, 18 hours. The method, then:
as §1

Experiment [2] relates to dendritic cells. Put plainly: Inhibition of E. coli LPS-induced activation of dendritic cells (CD40, CD80, CD86, I-Ab expression). The format is cell-based, mouse. To be noted: 100 ng/ml E. coli LPS; CD11c(+)/7AAD(−) dendritic cells. The procedure: In order to assay the effect of sodium glycocholate on the activation procedure of antigen presenting cells, which is induced by E. coli LPS, cells were separated from the bone marrow of recombination activating gene 2 (Rag2) deficient mouse. The separated cells were plated at 2×10^5 cells/well in a 96-well plate and then treated with 1.5 ng/ml of granulocyt-macrophage colony-stimulating factor (GM-CSF) and 0.75 ng/ml of interleukin-4 followed by the differentiation of the cells into dentritic cells through 6-day incubation.
The dendritic cells were well mixed with sodium glycocholate and LPS. The mixtures were stimulated for 18 hours at 37° C., and stained with anti-CD40-FITC, anti-CD80-FITC, anti-I-Ab-PE, anti-CD86-PE, 7AAD and anti-CD11c-APC, then the cells were assayed via a flow cytometer. Each group was treated and assayed at least twice, and the results were statistically analyzed through t-test. The results were p<0.05 compared with the experimental groups treated by only LPS.
As shown FIGS. 9A-9B to 11A-11B, in order to assay only living dedritic cells, CD11c(+)/7AAD(−) cells were selected and then the expressions of dendritic cell costimulatory molecules and I-Ab were assayed.

For the compound `C[C@H](CCC(=O)O)[C@H]1CC[C@H]2[C@@H]3[C@H](O)C[C@@H]4C[C@H](O)CC[C@]4(C)[C@H]3CC[C@]12C` [chenodeoxycholic acid], the “inhibition effect for LPS-stimulated CD25 expression (NF-κB activation)” value (from here on “inhibition effect”) in the experiment with NF-κB is on record as “showed inhibition effects”.
Still for that read-out and setting: as for `C[C@H](CCC(=O)O)[C@H]1CC[C@H]2[C@@H]3[C@H](O)C[C@@H]4C[C@H](O)CC[C@]4(C)[C@H]3C[C@H](O)[C@]12C` [cholic acid], the entry is “showed inhibition effects”; as for `C[C@H](CCC(=O)O)[C@H]1CC[C@H]2[C@@H]3C(=O)C[C@@H]4CC(=O)CC[C@]4(C)[C@H]3CC(=O)[C@]12C` [dehydrocholic acid], “showed inhibition effects”; as for `C[C@H](CCC(=O)NCC(=O)O)[C@H]1CC[C@H]2[C@@H]3[C@H](O)C[C@@H]4C[C@H](O)CC[C@]4(C)[C@H]3C[C@H](O)[C@]12C` [glycocholic acid hydrate], “showed inhibition effects”.
Same read-out and setting: with `C[C@H](CCC(=O)NCC(=O)[O-])[C@H]1CC[C@H]2[C@@H]3[C@H](O)C[C@@H]4C[C@H](O)CC[C@]4(C)[C@H]3CC[C@]12C.[Na+]` [sodium glycochenodeoxycholate] the entry was “showed an inhibition effect”.
`C[C@H](CCC(=O)NCCS(=O)(=O)O)[C@H]1CC[C@H]2C3[C@H](O)C[C@@H]4C[C@H](O)CC[C@]4(C)[C@H]3CC[C@]12C` (stereo partly drawn) [sodium taurochenodeoxycholate]: the “generation of NO” value in the experiment on dendritic cells [1] and with macrophages was “inhibited” throughout. Also, in the experiment with NF-κB, the “inhibition effect” value was “showed an inhibition effect”. In addition, the “increased expression of CD40, CD80, CD86 and I-Ab” value with dendritic cells [2] was “inhibited depending on the concentration”.
`C[C@H](CCC(=O)NCCS(=O)(=O)O)[C@H]1CC[C@H]2[C@@H]3[C@H](O)C[C@@H]4C[C@H](O)CC[C@]4(C)[C@H]3C[C@H](O)[C@]12C` [sodium taurocholate hydrate]: the “inhibition effect” value in the experiment with NF-κB is recorded as “showed an inhibition effect”.
As to `C[C@H](CCC(=O)NCCS(=O)(=O)[O-])[C@H]1CC[C@H]2[C@@H]3CC[C@@H]4C[C@H](O)CC[C@]4(C)[C@H]3C[C@H](O)[C@]12C.[Na+]` [sodium taurodeoxycholate hydrate], the “generation of NO” value with dendritic cells [1] and in the experiment with macrophages was “inhibited” throughout. Besides, the “inhibition effect” value in the experiment with NF-κB is “showed an inhibition effect”. Moreover, the “increased expression of CD40, CD80, CD86 and I-Ab” value in the experiment with dendritic cells [2] was “inhibited depending on the concentration”.
Take sodium deoxycholate: in the experiment with NF-κB, the “inhibition effect” value is on record as “showed an inhibition effect”.
